In PubChem BioAssay AID328 (DTP/NCI, 2004):
Where “and” joins values, the source holds several entries; their conditions need not be identical. Equal entries are not always repeated. Inconclusive results and toxic doses are left out. How the source made its calls: active means survival T/C of 150% or more; inactive means T/C below 125% in these data.

System: BDF1 mice, P388 leukemia ip, median survival T/C
Test: NCI In Vivo Anticancer Drug Screen. Data for tumor model P388 Leukemia (intraperitoneal) in B6D2F1 (BDF1) mice
Conditions: endpoint: median survival time, higher = longer survival
Procedure, shortened: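 Survival ratio, drug arm over vehicle arm, in mice with a transplanted tumour.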

[1] = dose: 100.0 mg/kg/injection, schedule: Q01DX009 (ip), vehicle: Klucel (hydroxypropylcellulose) (HPC)
[2] = dose: 100.0 mg/kg/injection, schedule: Q04DX003 (ip), vehicle: Klucel (hydroxypropylcellulose) (HPC)
[3] = dose: 200.0 mg/kg/injection, schedule: Q01DX009 (ip), vehicle: Klucel (hydroxypropylcellulose) (HPC)
[4] = dose: 200.0 mg/kg/injection, schedule: Q04DX003 (ip), vehicle: Klucel (hydroxypropylcellulose) (HPC)
[5] = dose: 400.0 mg/kg/injection, schedule: Q01DX009 (ip), vehicle: Klucel (hydroxypropylcellulose) (HPC)
[6] = dose: 400.0 mg/kg/injection, schedule: Q04DX003 (ip), vehicle: Klucel (hydroxypropylcellulose) (HPC)
[7] = dose: 100.0 mg/kg/injection, schedule: Q04DX003 (ip), vehicle: other
[8] = dose: 200.0 mg/kg/injection, schedule: Q04DX003 (ip), vehicle: other
[9] = dose: 400.0 mg/kg/injection, schedule: Q04DX003 (ip), vehicle: other
[10] = dose: 3.12 mg/kg/injection, schedule: Q01DX009 (ip), vehicle: saline
[11] = dose: 6.25 mg/kg/injection, schedule: Q01DX009 (ip), vehicle: saline
[12] = dose: 50.0 mg/kg/injection, schedule: Q01DX009 (ip), vehicle: saline with Tween-80
[13] = dose: 100.0 mg/kg/injection, schedule: Q01DX009 (ip), vehicle: saline with Tween-80
[14] = dose: 200.0 mg/kg/injection, schedule: Q01DX009 (ip), vehicle: saline with Tween-80
[15] = dose: 100.0 mg/kg/injection, schedule: Q04DX003 (ip), vehicle: saline with Tween-80
[16] = dose: 200.0 mg/kg/injection, schedule: Q04DX003 (ip), vehicle: saline with Tween-80

Measured: T/C

O=C1c2ccccc2C(=O)N1c1cc(O)cc(O)c1
inactive: dose: 1.0 mg/kg/injection, schedule: Q01DX009 (ip), vehicle: water 109 % of control | dose: 2.0 mg/kg/injection, schedule: Q01DX009 (ip), vehicle: water 113 % of control | dose: 4.0 mg/kg/injection, schedule: Q01DX009 (ip), vehicle: water 95 % of control and 98 % of control and 105 % of control | dose: 8.0 mg/kg/injection, schedule: Q01DX009 (ip), vehicle: water 90 % of control and 95 % of control | dose: 16.0 mg/kg/injection, schedule: Q01DX009 (ip), vehicle: water 100 % of control and 115 % of control | dose: 20.0 mg/kg/injection, schedule: Q01DX009 (ip), vehicle: water 101 % of control | dose: 32.0 mg/kg/injection, schedule: Q01DX009 (ip), vehicle: water 109 % of control | dose: 50.0 mg/kg/injection, schedule: Q04DX003 (ip), vehicle: water 100 % of control | dose: 100.0 mg/kg/injection, schedule: Q04DX003 (ip), vehicle: water 106 % of control | dose: 200.0 mg/kg/injection, schedule: Q04DX003 (ip), vehicle: water 97 % of control | dose: 400.0 mg/kg/injection, schedule: Q04DX003 (ip), vehicle: water 92 % of control

C#CCOC(=O)NC1CCCCC1
inactive: dose: 50.0 mg/kg/injection, schedule: Q01DX009 (ip), vehicle: Klucel (hydroxypropylcellulose) (HPC) 100 % of control | dose: 50.0 mg/kg/injection, schedule: Q04DX003 (ip), vehicle: Klucel (hydroxypropylcellulose) (HPC) 100 % of control | [1] 100 % of control | [2] 95 % of control | [3] 100 % of control | [4] 109 % of control

CC1(C)CC2(OC2c2ccccc2)C(C)(O)c2ccccc21 (configuration not stated)
inactive: [1] 95 % of control | [2] 110 % of control | [3] 90 % of control | [4] 105 % of control | [5] 100 % of control | [6] 105 % of control

Nn1nc2ccccc2n1
inactive: [7] 100 % of control | [8] 100 % of control | [9] 100 % of control

O=C(O)C1CC[N-]CC1.O=C(O)C1CC[N-]CC1.[Cl][Pt+2]([Cl])([Cl])[Cl]
inactive: [10] 109 % of control | [11] 90 % of control | dose: 25.0 mg/kg/injection, schedule: Q01DX009 (ip), vehicle: saline 94 % of control | dose: 50.0 mg/kg/injection, schedule: Q01DX009 (ip), vehicle: saline 100 % of control

Clc1ccc(-c2n[se]c(-c3ccc(Cl)cc3)n2)cc1
inactive: dose: 0.19 mg/kg/injection, schedule: Q01DX009 (ip), vehicle: saline with Tween-80 98 % of control | dose: 0.39 mg/kg/injection, schedule: Q01DX009 (ip), vehicle: saline with Tween-80 101 % of control | dose: 0.78 mg/kg/injection, schedule: Q01DX009 (ip), vehicle: saline with Tween-80 95 % of control | dose: 1.56 mg/kg/injection, schedule: Q01DX009 (ip), vehicle: saline with Tween-80 96 % of control

CC1CC(C)(C)N=C(C(C)(C)c2ccccc2)O1 (configuration not stated)
inactive: dose: 50.0 mg/kg/injection, schedule: Q04DX003 (ip), vehicle: saline sonified 100 % of control | dose: 100.0 mg/kg/injection, schedule: Q04DX003 (ip), vehicle: saline sonified 100 % of control | dose: 200.0 mg/kg/injection, schedule: Q04DX003 (ip), vehicle: saline sonified 90 % of control

[N-]=[N+]=NC(=O)c1cccs1
inactive: dose: 50.0 mg/kg/injection, schedule: Q01DX009 (ip), vehicle: saline + alcohol 99 % of control

c1cc[n+](CCSCCSCC[n+]2ccccc2)cc1
inactive: dose: 1.56 mg/kg/injection, schedule: Q01DX009 (ip), vehicle: saline 120 % of control | dose: 2.3 mg/kg/injection, schedule: Q04DX003 (ip), vehicle: saline 122 % of control | dose: 3.0 mg/kg/injection, schedule: Q04DX003 (ip), vehicle: saline 104 % of control and 113 % of control | [10] 105 % of control | dose: 4.6 mg/kg/injection, schedule: Q04DX003 (ip), vehicle: saline 100 % of control and 109 % of control | [11] 105 % of control | dose: 6.9 mg/kg/injection, schedule: Q04DX003 (ip), vehicle: saline 109 % of control | dose: 9.2 mg/kg/injection, schedule: Q01DX009 (ip), vehicle: saline 88 % of control | dose: 9.2 mg/kg/injection, schedule: Q04DX003 (ip), vehicle: saline 100 % of control | dose: 13.0 mg/kg/injection, schedule: Q04DX003 (ip), vehicle: saline 100 % of control

CCCN(CCC)c1ccc(/C=C/c2ccc3cc(OCC)ccc3n2)cc1
inactive: [1] 100 % of control | [2] 104 % of control | [3] 100 % of control | [4] 104 % of control | [5] 90 % of control | [6] 109 % of control

O=[N+]([O-])c1ccc2c(c1)CCCC2
inactive: dose: 100.0 mg/kg/injection, schedule: Q01DX009 (ip), vehicle: other 113 % of control | [7] 109 % of control | dose: 200.0 mg/kg/injection, schedule: Q01DX009 (ip), vehicle: other 118 % of control | [8] 118 % of control | dose: 400.0 mg/kg/injection, schedule: Q01DX009 (ip), vehicle: other 122 % of control | [9] 113 % of control

CC(C)CNC(=S)/N=C1\CCN(c2ccccc2)N1
inactive: dose: 4.5 mg/kg/injection, schedule: Q01DX009 (ip), vehicle: saline with Tween-80 118 % of control | dose: 9.0 mg/kg/injection, schedule: Q01DX009 (ip), vehicle: saline with Tween-80 86 % of control | dose: 18.0 mg/kg/injection, schedule: Q01DX009 (ip), vehicle: saline with Tween-80 92 % of control

O=c1ccccn1C/C(=N\O)c1ccccc1
inactive: [1] 95 % of control | [2] 100 % of control | [3] 95 % of control | [4] 95 % of control | [5] 100 % of control | [6] 100 % of control

CCN(CC)c1cc(=S)c2c(ccc3ccccc32)o1
inactive: [12] 100 % of control | [13] 106 % of control | [14] 103 % of control

CCCCCCCCCCCCCCSC(CC(=O)O)C(=O)NNC(N)=S (configuration not stated)
inactive: dose: 87.5 mg/kg/injection, schedule: Q01DX009 (ip), vehicle: saline with Tween-80 101 % of control | dose: 175.0 mg/kg/injection, schedule: Q01DX009 (ip), vehicle: saline with Tween-80 101 % of control | dose: 350.0 mg/kg/injection, schedule: Q01DX009 (ip), vehicle: saline with Tween-80 113 % of control

CCCCCC[C@@H](O)C/C=C\CCCCCCCC(=O)OCCO
inactive: dose: 50.0 mg/kg/injection, schedule: Q01DX005 (ip), vehicle: saline 99 % of control | dose: 100.0 mg/kg/injection, schedule: Q01DX005 (ip), vehicle: saline 107 % of control | dose: 200.0 mg/kg/injection, schedule: Q01DX005 (ip), vehicle: saline 93 % of control | dose: 400.0 mg/kg/injection, schedule: Q01DX005 (ip), vehicle: saline 105 % of control | dose: 800.0 mg/kg/injection, schedule: Q01DX005 (ip), vehicle: saline 115 % of control | dose: 1600.0 mg/kg/injection, schedule: Q01DX005 (ip), vehicle: saline 107 % of control

COC(=O)C(c1ccccc1)C(Br)C(=O)c1ccccc1 (configuration not stated)
inactive: [2] 100 % of control | [3] 88 % of control | [4] 104 % of control | [6] 90 % of control

Cc1c2oc3c(C)ccc(C(=O)NCc4cccnc4)c3nc-2c(C(=O)NCc2cccnc2)c(N)c1=O
inactive: [15] 96 % of control | [16] 96 % of control | dose: 400.0 mg/kg/injection, schedule: Q04DX003 (ip), vehicle: saline with Tween-80 100 % of control

COc1ccc(-c2c(CC(=O)O)c3cc(OC)ccc3n2Cc2ccc(Cl)cc2)cc1
inactive: [13] 90 % of control | [14] 113 % of control | dose: 400.0 mg/kg/injection, schedule: Q01DX009 (ip), vehicle: saline with Tween-80 90 % of control

Cc1ccc2c(c1)NC(c1ccc(C(=O)O)cc1)c1cccn1-2 (configuration not stated)
inactive: [12] 86 % of control | [13] 89 % of control | [14] 91 % of control

O=[N+]([O-])c1ccc(/C=N/c2ncc(Br)s2)o1
inactive: dose: 25.0 mg/kg/injection, schedule: Q01DX009 (ip), vehicle: saline with Tween-80 120 % of control | dose: 25.0 mg/kg/injection, schedule: Q04DX003 (ip), vehicle: saline with Tween-80 104 % of control and 118 % of control | [13] 90 % of control | [15] 118 % of control | [16] 90 % of control

Cc1ccc2c(c1)C(=O)CCS2
inactive: [2] 100 % of control | [4] 100 % of control | [6] 100 % of control
